“Also recorded” adds a separate entry of the source. Positions of bridges follow the written chain, without caps; N, C: chain ends. No end group written: not given here.

Data set [1] deals with hTERT RPE-1. Kind of data set: proliferation (IncuCyte confluency). Format: cell-based, human. Particulars: cell confluency (%) over time, n = 4 wells. As for the experimental part: (§1) The cell proliferation was quantified in terms of cell confluency (%) over time; data points were collected every hour. […] LNCaP, it is presumed that the observed effect cannot only be attributed to KV10.1 inhibition (Figure S5).
(§2) Cell lines SH-SY5Y (ACC 209), LNCaP (ACC 256) and NIH-3T3 (ACC 59) were purchased from DSMZ (Germany). MDA-MB-435S (HTB 129) and hTERT RPE-1 (CRL 4000) were obtained from ATCC (USA). Cell lines were cultured in their recommended media supplemented with 10% or 15% FCS (PAA laboratories, Cölbe, Germany) at 37 °C in humidified 5% CO2 atmosphere. All media were purchased from ThermoFisher Scientific (Waltham, MA, USA).
(§3) Cell proliferation, cytotoxicity and apoptosis were assessed in a 96-well microtiter plate by live-cell imaging using an IncuCyte Zoom System (Essen BioScience, Welwyn Garden City, UK). Cell proliferation was monitored in terms of cell confluency (%). Cell cytotoxicity was assessed by the CellTox Green Dye assay (Promega, Madison, WI, USA). The IncuCyte Caspase-3/7 apoptosis assay (Essen BioScience, UK) was used to evaluate the effect of APETx4 on the apoptotic pathway.
(§4) Live-cell imaging data were collected from the IncuCyte Zoom software and analyzed using GraphPad Prism 6 software. Proliferation was measured as Phase Object Confluence (%), cytotoxicity and apoptosis were measured as Green Object Count (1/mm²). Data points were collected every hour. In order to improve the clarity of the graphs, only the data points for every 5 h are shown. All data are represented as mean ± S.E.M of n = 4 different wells.

In data set [2] the test system is LNCaP. The experiment in a line: proliferation (IncuCyte confluency). The class given is cell-based, human. Particulars: cell confluency (%) over time, n = 4 wells. How it is done: as §1, §2, §3, §4
For data set [3], the system named is SH-SY5Y. Kind of data set: proliferation (IncuCyte confluency). Format: cell-based, human. Particulars: cell confluency (%) over time, n = 4 wells. As for the experimental part: as §1, §2, §3, §4
For data set [4], the system named is MDA-MB-435S. Kind of data set: proliferation (IncuCyte confluency). Format: cell-based, human. Particulars: cell confluency (%) over time, n = 4 wells. How it is done: as §1, §2, §3, §4
Data set [5] concerns NIH-3T3. The experiment in a line: proliferation (IncuCyte confluency). The class given is cell-based, mouse. Particulars: cell confluency (%) over time, n = 4 wells. How it is done: as §1, §2, §3
Live-cell imaging data were collected from the IncuCyte Zoom software and analyzed using GraphPad Prism 6 software. Proliferation was measured as Phase Object Confluence (%), cytotoxicity and apoptosis were measured as Green Object Count (1/mm²). Data points were collected every hour. […]

In data set [6] the test system is hKV11.1 (hERG). The class given is cell-based, human. As for the experimental part:
For the expression of the ion channels (rNaV1.4, hNaV1.5, mNaV1.6, hKV1.1, rKV1.3, hKV1.4, hKV1.5, hKV2.1, hKV10.1a and hKV11.1,) in Xenopus oocytes, the plasmids were linearized and subsequently transcribed using the T7 or SP6 mMESSAGE-mMACHINE transcription kit (Ambion®, Carlsbad, CA, USA).
Stage V-VI Xenopus laevis oocytes were isolated by partial ovariectomy. The animals were anesthetized by a 15 min submersion in 0.1% tricaine methane sulfonate (pH 7.0). Isolated oocytes were defolliculated with 2 mg/mL collagenase.
Defolliculated oocytes were injected with 50 nL of cRNA at a concentration of 1 ng/nL using a micro-injector (Drummond Scientific®, Broomall, PA, USA). The oocytes were incubated in a solution containing (in mM): NaCl, 96; KCl, 2; CaCl2, 1.8; MgCl2, 2 and HEPES, 5 (pH 7.4), supplemented with 50 mg/L gentamycin sulfate.
Two-electrode voltage-clamp recordings were performed at room temperature (18–22 °C) using an Geneclamp 500B Voltage and Patch Clamp Amplifier (Axon Instruments, Union City, CA, USA, controlled by a Axon Digidata 1550 Low-Noise Data Acquisition System (Axon Instruments). Whole cell currents from oocytes were recorded 1–4 days after injection. The normal bath solution (ND96) composition was (in mM): NaCl, 96; KCl, 2; CaCl2, 1.8; MgCl2, 2 and HEPES, 5 (pH 7.4). The high potassium solution (HK) composition was in mM): NaCl, 2; KCl, 96; CaCl2, 1.8; MgCl2, 2 and HEPES, 5 (pH 7.4). Voltage and current electrodes were filled with 3 M KCl. Resistances of both electrodes were kept between 0.5 and 1.5 MΩ. The elicited KV1.x end KV2.1 currents were filtered at 500 Hz and sampled at 2 kHz, KV10.1 currents were filtered at 1 kHz and sampled at 2 kHz, hERG currents were filtered at 1 kHz and sampled at 10 kHz and the sodium currents were filtered at 2 kHz and sampled at 20 kHz using a four-pole low-pass Bessel filter. Leak subtraction was performed using a -P/4 protocol.
KV10.1 currents were evoked by 2 s depolarizing pulses to 0 mV from a holding potential of −90 mV. KV11.1 (hERG) peak and tail currents were generated by a 2.5 s prepulse from −90 mV to 40 mV followed by a 2.5 s pulse to −120 mV. […]
The peak and tail current of hERG were measured at different voltages by 1500 ms activating pulses from −60 mV to 55 mV in 5 mV steps from the holding potential of −90 mV, followed by a 750 ms step to −120 mV.
All electrophysiological data are presented as means ± S.E.M of n ≥ 3 independent experiments unless otherwise indicated. All data were acquired using pClamp Clampex 10.4 Molecular Devices, Downingtown, PA, USA) and analyzed using pClamp Clampfit 10.4 (Molecular Devices) and OriginPro 8 (Originlab, Northampton, MA, USA) or GraphPad Prism 6 software (GraphPad Software, Inc., San Diego, CA, USA). […]

For the sequence “GTTCYCGKTIGIYWFGKYSCPTNRGYTGSCPYFLGICCYPVD (disulfide 4-37, 6-30, 20-38) [APETx4]”, the antiproliferative effect result is given as “concentration-dependent antiproliferative effect” in data set [1]; “concentration-dependent antiproliferative effect” in data set [2]; “concentration-dependent antiproliferative effect” in data set [3]; “concentration-dependent antiproliferative effect” in data set [4]; “without affecting the proliferation of healthy fibroblast cells” in data set [5]. Besides, the “hERG tail current at positive activation steps (≥0 mV)” value in data set [6] (10 µM APETx4) is “tail current increased”. Moreover, the “highest inhibition of hERG inward tail current” value in data set [6] (10 µM APETx4, activating step to −20 mV) was 21 ± 5%. Also, the “shift of hERG activation curve towards more positive potentials” value in data set [6] (10 µM APETx4, inward tail currents, Boltzmann fit, n = 3, p < 0.05) was found to be 7.7 ± 0.4 mV. Also, in data set [6] (low micromolar concentrations), the “selectivity KV10.1 versus hERG” value is “discriminates between KV10.1 and hERG; also recorded: makes a clear distinction between KV10.1 and hERG”.

The record behind these values is article PMC5618426, “APETx4, a Novel Sea Anemone Toxin and a Modulator of the Cancer-Relevant Potassium Channel KV10.1” (Marine Drugs, 2017).
